Our source for the inhibition values is PubChem BioAssay AID720669 (NMMLSC, 2013).

Calls of active or inactive are those of the source.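 Rule for the calls: active = visibly stopped the calcineurin reporter band on a blot from moving down to a smaller size, judged by eye; inactive = reporter band movement visibly unaltered.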

For the assay, the system named is calcineurin (human, NFAT-based CaNAR1 reporter dephosphorylation). Kind of assay: inhibitors of CaNAR1 reporter dephosphorylation – TALL-104 cells, western blot, CherryPick01, mechanism study for lytic granule exocytosis inhibitor project (AID 720669). Conditions: CaNAR1 dephosphorylation shift, at 12 µM, stronger effect = higher value.
Consider `O=C(Cn1sc2ccccc2c1=O)Nc1ccc(F)cc1`, for which the inhibition (as a rule, how much of the control response was suppressed) is 0% (inactive). The same measure for `CCCCC[C@@H](C)N1C[C@H](COCc2ccccc2)Oc2cc(N3CC[C@@H](N(C)C)C3)ccc2S1(=O)=O`: 0% (inactive). The result for `O=CNc1cc(-c2ccsc2)cn2c(-c3ccccc3)cnc12` reads 0% (inactive); that for `COc1ccc(N2C(=O)CC(Sc3nnc(-c4ccccc4)o3)C2=O)cc1` (configuration not stated), 0% (inactive); that for `CCCCC[C@@H](C)N1C[C@@H](COCc2ccccc2)Oc2cc(N3CC[C@@H](N(C)C)C3)ccc2S1(=O)=O`, 0% (inactive). The same measure for `COc1ccccc1CNc1nc(NCc2ccc(C(C)C)cc2)c2sccc2n1`: 0% (inactive); for `O=c1c2ccc(F)cc2sn1-c1ccccc1`: 0% (inactive); for `Cc1ccc(Nc2nc(NCc3ccco3)c3ccccc3n2)cc1`: 0% (inactive).

Take `COC(=O)c1c(NC(=O)c2nc3ccccc3s2)sc2c1CC(C)(C)NC2(C)C`: the inhibition is 0% (inactive). For the compound `COc1ccc(-n2sc3ccccc3c2=O)cc1`, the inhibition was 0% (inactive). The same measure for `Cc1ccc(S(=O)(=O)n2ccc3c(OCCOCCNCc4ccc(F)cc4)cccc32)cc1`: 0% (inactive); for `CC1=NOC(=O)/C1=C/c1ccc(-c2ccc(Cl)cc2)o1`: 0% (inactive). The same measure for `CN(C)CCNC(=O)c1ccc(-c2cn3c(-c4ccc(Oc5ccccc5)cc4)cnc3cn2)cc1`: 0% (inactive); for `COc1ccc(-c2cc(NC=O)c3ncc(-c4cccc(OC)c4)n3c2)cc1`: 0% (inactive). The result for `CC(C)(c1ccccc1)c1ccc(OCC(O)CNC2CCN(Cc3ccccc3)CC2)cc1` (configuration not stated) reads 0% (inactive); that for `CCN(CC)CCCNc1ccc(-c2nnc(-c3ccc(OCC(C)C)cc3)o2)cn1`, 0% (inactive); that for `O=c1c2ccccc2sn1-c1ccccc1`, 0% (inactive). With `COc1ccc(-c2cc(NC=O)c3ncc(-c4ccccc4)n3c2)cc1OC`, the inhibition is 0% (inactive).

Take `O=C(Cn1sc2ccccc2c1=O)NC12CC3CC(CC(C3)C1)C2`: the inhibition was 0% (inactive). The same measure for `CC1COCC(C)N1C1=C(Cl)C(=O)c2ccccc2C1=O` (configuration not stated): 100%. The result for `O=C(CN1C(=O)/C(=C\c2cccc(Br)c2)Oc2ccccc21)NCCCN1CCOCC1` reads 0% (inactive).

Turning to `CCCCC[C@@H](C)N1C[C@@H](COCc2ccccc2)Oc2cc(N3CC[C@H](N(C)C)C3)ccc2S1(=O)=O`, the inhibition was 0% (inactive).
